The values below are quoted from earlier work in patent US20260293888A1, “METHODS OF TREATING MOLD” (priority 2023, published 2026).

A word on the boiling point: it is the temperature of boiling at a given pressure.

Consider `OCCOCCOCCO` [Triethylene glycol, triethylene glycol], for which the flash point (TEG alone) is 157 °C. Also, where the note is “at a pressure of 101.325 kPa”, the boiling point is 286.5 °C. Further, for the setting “compared to water”, the vapor pressure result is “relative low vapor pressure compared to water”. In addition, where the note is “water”, the miscibility with water result is on record as “miscible with water”.
